Laboratory results: US20030180285A1, “Treatment of fungal infections with polyene or beta glucan synthase inhibitor anti-fungals combined with anti hsp90 antibodies” (priority 2000, published 2003)
≈ marks a conversion by molar mass, not a printed value. Like-named read-outs stand apart in the source and are kept apart here.

Key:
[1] = tested on: C. tropicalis (NCPF #3111); assay: Broth microdilution test (MIC, colony counts); format: cell-based; conditions: for MIC: Candida tropicalis, NCPF3111, no antibody
Protocol: (§1) Non-Aspergillus yeast strains used (Table 1) were plated onto Sabouraud's dextrose agar (Oxoid, Basingstoke, UK) and incubated at 37° C. for 24 hours. The strains were identified with the API 20C system (BioMerieux, Marcy L'Etoile, France). If needed, microscopical examinations of morphology on cornmeal agar (Oxoid) was used to confirm the identity.
(§2) For non-Aspergillus strains, suspensions were prepared from individual colonies (diameter≧1 mm) in 5 ml of sterile 0.85% saline to a density of […] as established by counting on a haemocytometer grid. For Aspergillus strains, see below.
(§3) RPMI broth was prepared from RPMI 1640 broth medium (Sigma R7880) supplemented with 0.3 g of glutamine per litre, buffered with 34.6 g of morpholine propanesulfonic acid (MOPS) per litre and adjusted to ph 7.0.
(§4) Twofold dilutions ([…] for amphotericin B and 400 to 0.4 mg/ml for fluconazole) were prepared in RPMI broth starting from the two stock solutions. A 100 μl suspension of the inoculum diluted 1 in 10 (equivalent to 1×10^3 cfu) was added to the microtiter plates. To this was added 50 μl of the antifungal and then 50 μl of the antibody. Antibody was either neat (0.4 mg/mil), or diluted to 1/10or 1/100. When antibody was absent, the 50 μl volume was made up by RPMI. The total volume in each well was 200 μl. Final concentrations of antibody in the experiments were: 100 μg/ml (“neat”), 10 μg/ml (“ 1/10antibody”) or 1 μg/ml (“ 1/100antibody”).
(§5) Plates were incubated at 37° C. overnight and the minimum inhibitory concentration (MIC) defined by the lower concentration inhibiting growth.
(§6) Colony counts were determined for the wells where there was a visual reduction in yeast growth. Results were represented as colony forming units per ml of broth (cfu/ml).

C. krusei (FA/157) = assay: Broth microdilution test (MIC, colony counts); format: cell-based; conditions: for MIC: Pichia kudriavzevii; for MIC / Colony counts: no antibody
Protocol: as §1, §2, §3, §4, §5, §6

[2] = tested on: Torulopsis glabrata (NCPF #3240); assay: Broth microdilution test (MIC, colony counts); format: cell-based; conditions: T. glabrata; for MIC: Nakaseomyces glabratus, NCPF3240
Protocol: as §1, §2, §3, §4, §5, §6

[3] = tested on: Candida albicans (outbreak); assay: Broth microdilution test (MIC, colony counts); format: cell-based
Protocol: as §1, §2, §3, §4, §5, §6

[4] = tested on: C. parapsilosis (NCPF #3104); assay: Broth microdilution test (MIC, colony counts); format: cell-based; conditions: for MIC: Lodderomyces parapsilosis, NCPF3104, no antibody; for Colony counts: no antibody
Protocol: as §1, §2, §3, §4, §5, §6

[5] = tested on: Aspergillus fumigatus (NCPF #2109); assay: Aspergillus studies, MIC in microtitre plates; format: cell-based; conditions: NCPF2109, formulation buffer only, read-out: MIC to Amphotericin B
Protocol: (§7) Isolates of Aspergillus fumigatus, Aspergillus flavus and Aspergillus niger were prepared in RPMI 1640 medium. The suspensions were prepared to give a final inoculum of 2×10^4 conidia per ml and these were dispensed in 100 μl aliquots into flat-bottomed microtitre plates. A double dilution series of Amphotericin B ranging from 250 μg/nil to 0.75 μg/ml was prepared and dispensed to the appropriate wells. Mycograb was added to each of the wells at a final concentration of 100 μg/ml in formulation buffer. A control series was also prepared for each isolate which contained formulation buffer only.

[6] = tested on: C. albicans (Fluconazole resistant); assay: Broth microdilution test (MIC, colony counts); format: cell-based, Candida albicans
Protocol: as §1, §2, §3
Twofold dilutions ([…] for amphotericin B and 400 to 0.4 mg/ml for fluconazole) were prepared in RPMI broth starting from the two stock solutions. A 100 μl suspension of the inoculum diluted 1 in 10 (equivalent to 1×10^3 cfu) was added to the microtiter plates. To this was added 50 μl of the antifungal and then 50 μl of the antibody. Antibody was either neat (0.4 mg/mil), or diluted to 1/10or 1/100. When antibody was absent, the 50 μl volume was made up by RPMI. […]
Colony counts were determined for the wells where there was a visual reduction in yeast growth. […]

[7] = tested on: C. albicans outbreak strain; assay: Animal synergy: yeast counts in tissues of infected mice; format: in vivo, CD1 mice; conditions: Group 1: amphotericin B 0.6 mg/kg only, 48 hours
Protocol: Thirty CD1 mice (each weighing about 25 g) were injected with 100 μl of C. albicans outbreak strain (equivalent to 1.5×10^7 cfu) and after 2 hours the mice were split into three groups and injected with:
(A) Group 1—100 μl solution of 10 mM ammonium acetate (AAT; pH 9), followed by 100 μl amphotericin B equivalent to 0.6 mg/kg in a 5% (w/v) glucose solution;
(B) Group 2—100 μl solution of 10 mM AAT (pH 9) solution containing 500 μg anti-hsp90 antibody, followed by 100 μl amphotericin B equivalent to 0.6 mg/kg in a 5% (w/v) glucose solution; and
(C) Group 3—100 μl solution of 10 mM AAT (pH 9) containing 50 μg anti-hsp90 antibody, followed by 100 μl amphotericin B equivalent to 0.6 mg/kg in a 5% (w/v) glucose solution.
The animals were culled after 48 hours and yeast counts on Sabouraud's plates of liver, spleen and kidney tissue performed.

Aspergillus flavus = assay: Aspergillus studies, MIC in microtitre plates; format: cell-based; conditions: formulation buffer only, read-out: MIC to Amphotericin B
Protocol: as §7

Aspergillus niger = assay: Aspergillus studies, MIC in microtitre plates; format: cell-based; conditions: formulation buffer only, read-out: MIC to Amphotericin B
Protocol: as §7

[8] = read-out: MIC to amphotericin B
[9] = antibody 0.313 μg/ml, no antifungal agent

Molecule: OC(Cn1cncn1)(Cn1cncn1)c1ccc(F)cc1F [Fluconazole, fluconazole]
- MIC ([1]; read-out: MIC to fluconazole): 3.12 µg/mL (≈ 10.2 µM)
- Colony counts ([1]; fluconazole 0.09 μg/ml, no antibody): 5 × 10^5 cfu/ml
- MIC (C. krusei (FA/157); read-out: MIC to fluconazole): 100 µg/mL (≈ 327 µM)
- Colony counts (C. krusei (FA/157); fluconazole 25 μg/ml): 3.2 × 10^7 cfu/ml
- Colony counts (C. krusei (FA/157); fluconazole 50 μg/ml): 1.6 × 10^7 cfu/ml
- MIC ([2]; no antibody, read-out: MIC to fluconazole): 1.56 µg/mL (≈ 5.09 µM)
- Colony counts ([3]; C. albicans outbreak strain, fluconazole 0.09 μg/ml, no antibody): 3.6 × 10^5 cfu/ml
- MIC ([4]; read-out: MIC to fluconazole): 6.25 µg/mL (≈ 20.4 µM)
- Colony counts ([4]; fluconazole 3.13 μg/ml): 2.6 × 10^6 cfu/ml

Molecule: C[C@@H]1[C@H](O)[C@@H](C)/C=C/C=C/C=C/C=C/C=C/C=C/C=C/[C@H](O[C@@H]2O[C@H](C)[C@@H](O)[C@H](N)[C@@H]2O)C[C@@H]2O[C@](O)(C[C@@H](O)C[C@@H](O)[C@H](O)CC[C@@H](O)C[C@@H](O)CC(=O)O[C@H]1C)C[C@H](O)[C@H]2C(=O)O [Amphotericin B, amphotericin B]
- MIC [5]: 2.5 µg/mL (≈ 2.71 µM)
- MIC ([6]; Candida albicans, C. albicans fluconazole resistant, no antibody, read-out: MIC to amphotericin B): 0.312 µg/mL (≈ 0.338 µM)
- MIC [1, 8]: 0.078 µg/mL (≈ 0.0844 µM)
- MIC (C. krusei (FA/157); [8]): 0.625 µg/mL (≈ 0.676 µM)
- MIC ([2]; no antibody, read-out: MIC to amphotericin B): 0.039 µg/mL (≈ 0.0422 µM)
- Colony counts ([2]; amphotericin B 0.009 μg/ml, no antibody): 1.1 × 10^7 cfu/ml
- MIC ([3]; Candida albicans, C. albicans (outbreak), no antibody, read-out: MIC to amphotericin B): 0.156 µg/mL (≈ 0.169 µM)
- MIC [4, 8]: 0.625 µg/mL (≈ 0.676 µM)
- Colony counts ([4]; amphotericin B 0.313 μg/ml): 3 × 10^6 cfu/ml
- Colony counts ([4]; amphotericin B 0.626 μg/ml): 6.3 × 10^3 cfu/ml
- Colonies of C. albicans in tissue ([7]; Kidney): 6.80 ± 0.916 cfu/ml, in log10
- Colonies of C. albicans in tissue ([7]; Liver): 4.26 ± 1.42 cfu/ml, in log10
- Colonies of C. albicans in tissue ([7]; Spleen): 4.18 ± 1.18 cfu/ml, in log10
- MIC (Aspergillus flavus): 2.5 µg/mL (≈ 2.71 µM)
- MIC (Aspergillus niger): 2.5 µg/mL (≈ 2.71 µM)

B1: antibody: antibody of SEQ ID NO: 2 (heavy, light and spacer domains) recognising Candida albicans hsp90 epitope SEQ ID NO: 1, expressed in E. coli (protein)
scFv: HMAEVQLVESGAEVKKPGESLRISCKGSGCIISSYWISWVRQMPGKGLEWMGKIDPGDSYINYSPSFQGHVTISADKSINTAYLQWNSLKASDTAMYYCARGGRDFGDSFDYWGQGTLVTVSSGGGGSGGGGSGGGGSDVVMTQSPSFLSAFVGDRITITCRASSGISRYLAWYQQAPGKAPKLLIYAASTLQTGVPSRFSGSGSGTEFTLTINSLQPEDFATYYCQHLNSYPLTFGGGTKVDIKRAA
- Effect of antibody on its own against yeast growth ([6]; C. albicans (fluconazole resistant), antibody 0.313 μg/ml, no antifungal agent): 6 × 10^6 cfu/ml
- Effect of antibody on its own against yeast growth [1, 9]: 6.0 × 10^5 cfu/ml
- Effect of antibody on its own against yeast growth (C. krusei (FA/157); [9]): 1.6 × 10^6 cfu/ml
- Effect of antibody on its own against yeast growth [2, 9]: 1.2 × 10^7 cfu/ml
- Effect of antibody on its own against yeast growth ([3]; C. albicans (outbreak), antibody 0.313 μg/ml, no antifungal agent): 5.6 × 10^6 cfu/ml
- Effect of antibody on its own against yeast growth [4, 9]: 2.6 × 10^4 cfu/ml
